The values below come from patent US12415799B2, “Indazole-fused cyclic compound” (Zhejiang Yangli Pharmaceutical Technology Co., Ltd., priority 2020, dated 2025).

Where two headings read alike, the source gives them in different places.

One data set deals with ERα (Homo sapiens (Human), UniProt P03372). Briefly: Degradation experiment of MCF-7 ERα (ELISA). Type of data set: cell-based. Conditions: MCF-7 cell line, 4 hours incubation, total ERα ELISA; read-out: IC50 value of promoting ERα degradation. From the text: (2) Degradation Experiment of MCF-7 ERα Experimental Materials:
Phenol red-free MEM culture medium was purchased from Wisent, fetal bovine serum was purchased from Biosera, and Human Total ERα/NR3A1 ELISA kit was purchased from R&D. MCF-7 cell line was purchased from Cell Bank of Type Culture Collection of Chinese Academy of Sciences. Nivo5 multi-label analyzer (PerkinElmer).
MCF-7 cells were resuspended in culture medium (phenol red-free MEM+5% charcoal/dextran-treated fetal bovine serum+1% penicillin-streptomycin double antibody solution), and seeded in a clear 96-well cell culture plate with 80 μL per well containing 20,000 cells, and the cell culture plate was incubated overnight in a carbon dioxide incubator;
ELISA plate was coated with strips, human total estrogen receptor a capture antibody was diluted with 1×PBS with a final concentration of 1 μg/mL, and 100 μL of mixture was added to each well, and incubated overnight at 25° C.
Cell administration: The test compound was diluted to the 8th concentration with a multi-channel pipette, and the compound concentration was 20 μM and 4 μM, and then diluted to the 8th concentration of 0.256 nM in turn, and a double-duplicate experiment was set-up. 78 μL of culture medium was added to the middle plate, then 2 μL of gradient dilution compound per well was transferred to the middle plate according to the corresponding position, and 20 μL of the mixture per well was mixed evenly and transferred to the cell plate, and the final concentration of DMSO was 0.5%, and the mixture was incubated at 37° C. for 4 hours;
preparation of standard curve solution: 110 ng/mL of standard curve storage solution was 6-fold diluted with buffer (1×PBS containing 1 mM EDTA, 0.5% Triton X-100, pH 7.2 to 7.4) to obtain a solution with a concentration of 18.3 ng/mL, and then 91.5-fold diluted with buffer (1×PBS containing 1 mM EDTA, 0.5% Triton X-100, 1 M urea, pH 7.2 to 7.4) to obtain a solution with a concentration of 0.2 ng/mL, and 8-point gradient dilution was performed using buffer (1×PBS containing 1 mM EDTA, 0.5% Triton X-100, 1 M urea, pH 7.2 to 7.4) with a final concentration of […].
1×PBS was pre-cooled, and after the incubation of the compound, the supernatant was removed, and then the plate was washed with 250 μL of pre-cooled 1×PBS per well, then 30 µL of cell lysate per well (1×PBS containing 1 mM EDTA, 0.5% Triton X-100, 6 M urea, 1 mM active sodium orthovanadate, 2.5 mM sodium pyrophosphate, lx protease inhibitor, pH 7.2 to 7.4) was added, and lysed on ice for 15 minutes;
after cell was lysed in the cell plate, the cell lysate was 6-fold diluted with 150 μL of buffer (1×PBS containing 1 mM EDTA, 0.5% Triton X-100, pH 7.2 to 7.4) per well, and the mixture was mixed evenly by blowing with a multi-channel pipette, and 100 μL of solution per well was transferred to the ELISA plate;
the human total estrogen receptor a detection antibody stock solution (14.4 μg/mL) was 36-fold diluted with buffer (1×PBS containing 1% bovine serum albumin), and the final concentration of the detection antibody was 400 ng/mL, and 100 μL of the solution per well was transferred to the ELISA plate and incubated at 25° C. for 2 hours;
Data analysis: A, B, C and D in the four-parameter equation y=(A−D)/[1+(x/C)^B]+D were calculated according to the original data of the standard curve, wherein, y was the original OD450 value, x was the concentration of the corresponding point of the standard curve. According to the four-parameter equation and the OD450 reading of the original data of the sample, the concentration of ERα at the corresponding point was calculated. The equation (Sample−Min)/(Max−Min)×100% was used to convert the original data into inhibition rate, and the IC50 value could be obtained by curve fitting with four parameters (obtained by “log (inhibitor) vs. response—variable slope” mode in GraphPad Prism).
Max wells: Positive control wells reading at 100 nM Fulvestrant-treated cell wells […]
Background: ELISA stands for enzyme-linked immunosorbent assay.

The target in a further data set is CYP1A2 (Homo sapiens (Human), UniProt P05177). Type of data set: in vitro ADME. Conditions: microsomes. Here is the method:
(§1) Experimental purposes: To test the inhibitory effect of test compound on the activity of human liver microsomal cytochrome P450 isoenzymes (CYP1A2 and CYP3A4) (Corning, Co., Ltd.).
(§2) Experimental operation: Firstly, the test compound (10 mM) was subjected to gradient dilution to prepare a working solution (100×final concentration), and the concentration of the working solution was: 5, 1.5, 0.5, 0.15, 0.05, 0.015 and 0.005 mM, respectively, and the working solution of each positive inhibitor of P450 isoenzyme (CYP1A2 and CYP3A4) and its specific substrate mixture (5 in 1) were prepared; and then the human liver microsomes frozen in the −80° C. refrigerator were thawed on ice, and all the human liver microsomes were dissolved, diluted with PB, and a certain concentration of working solution (0.253 mg/mL) was prepared; 20 μL of substrate mixture was added to the reaction plate (20 μL of PB was added to the blank well), while 158 μL of human liver microsomal working solution was added to the reaction plate, and the reaction plate was placed on ice for later use; at this time, 2 μL of various concentrations of the test compound (N=1) and specific inhibitor (N=2) were added to the corresponding well, and the corresponding organic solvent was added to the non-inhibitor (test compound or positive inhibitor) group as a control group sample (a ratio of DMSO:MeOH in the test compound control sample was 1:1, a ratio of DMSO:MeOH in the positive control sample was 1:9); after pre-incubation in a water bath at 37° C. for 10 min, 20 μL of coenzyme factor (NADPH) solution was added to the reaction plate, and incubated in a water bath at 37° C. for 10 min; and 400 μL of cold acetonitrile solution (internal standard was 200 ng/mL tolbutamide and labetalol) was added to terminate the reaction; the reaction plate was placed on a shaker and shaked for 10 minutes; and then centrifuged at 4,000 rpm for 20 minutes; 200 μL of the supernatant was taken and added to 100 μL of water for sample dilution; finally the plate was sealed, shaked and shaked well, for LC/MS/MS detection.

A further data set addresses CYP3A4 (Homo sapiens (Human), UniProt P08684). Briefly: Cytochrome P450 isoenzyme inhibition, human liver microsomes. Format: in vitro ADME. As to the method: as §1, §2
A general note: Liver microsomes are vesicles of endoplasmic reticulum, rich in cytochrome P450 enzymes.

Another data set has as its system MCF-7 cells. Briefly: MCF-7 cell proliferation inhibition experiment. The note with it: Homo sapiens, MCF7, 144 h, 6 days incubation, CellTiter-Glo, read-out: Anti-cell proliferation activity of MCF-7. Type of data set: cell-based. As to the method: (1) MCF-7 Cell Proliferation Inhibition Experiment:
EMEM culture medium was purchased from Wisent, and fetal bovine serum was purchased from Biosera, Promega CellTiter-Glo reagent. MCF-7 cell line was purchased from Cell Bank of Type Culture Collection of Chinese Academy of Sciences. Nivo5 multi-label analyzer (PerkinElmer).
MCF-7 cells were seeded in a white 384-well plate with 600 cells per well in every […] of the cell suspension. The cell plate was placed in a carbon dioxide incubator and cultured overnight.
The test compound was diluted to the 10th concentration with a multi-channel pipette, and the compound concentration was 1 mM, 400 μM, and 80 μM, and then diluted to the 10th concentration of 1 nM in turn, and a double-duplicate experiment was set-up. 47.5 μL of culture medium was added to the middle plate, then 2.5 μL of gradient dilution compound per well was transferred to the middle plate according to the corresponding position, and 5 μL of the mixture per well was mixed evenly and transferred to the cell plate. The cell plate was placed in a carbon dioxide incubator and cultured for 6 days.
After 6 days of co-incubation of the compound, the culture medium was removed by centrifugation, and 25 μL of Promega CellTiter-Glo reagent was added to each well of the cell plate, and incubated at room temperature for 10 minutes to stabilize the luminescence signal. PerkinElmer Nivo multi-marker analyzer reading was used. In the experiment, the reading of 2 μM positive reference compound H3B-6545(US20160347717A1) was used as a positive control to participate in data calculation.
The equation % Inhibition=((RFUCmpd−AVER(RFUNeg.ctrl))/((AVER(RFUPos.Ctrl)−AVER(RFUNeg.ctrl))×100% was used to convert the original data into inhibition rate, and the compound curve was fitted by log(inhibitor)vs. response-Variable slope of Graphpad Prism 5. The IC50 value was calculated by the software through the formula Y=Bottom+(Top−Bottom)/(1+10^((Log IC50−X)*HillSlope)).
(Cellular ATP, detected with luciferase, serves as a proxy for viable cell number.)

In the next data set the test system is breast cancer. The note with it: intramuscular injection; cited from earlier work.
For data set [1] the following is noted: in vivo, cited from earlier work.
A further data set relates to rat uterus. Briefly: Uterine wet weight inhibition experiment in rat cubs. Conditions: 18-day-old female rat pups, oral, three consecutive days; compounds 25 mg/kg, Ethinylestradiol 0.1 mg/kg. Type of data set: in vivo. As to the method: The purpose of this experiment was to evaluate the effect of the compound of the present disclosure on uterine growth inhibition in 18 to 21-day-old female rat pups (provided by Beijing Vital River Laboratory Animal Technology Co., Ltd.). In this experiment, 18-day-old female rat pups were orally administered the compound of the present disclosure at a dose of 25 mg/kg for three consecutive days, and the control group was orally administered 0.1 mg/kg of Ethinylestradiol for three consecutive days, and the blank group was not given any drug except the corresponding solvent. Three days after the administration, the rats were sacrificed, and the weight of the rat uterus was weighed to observe the effect of the test drug on the growth inhibition of the rat uterus. Inhibition rate=100×[(VehicleEE−Cpd)/(VehicleEE−Vehicle)], VehicleEE was the wet weight of the rat uterus in the control group (administered 0.1 mg/kg of Ethinylestradiol orally); Cpd was the wet weight of the rat uterus in administration group; Vehicle was the wet weight of the rat uterus in the blank group.

CYP3A4, sequence (P08684 whole entry): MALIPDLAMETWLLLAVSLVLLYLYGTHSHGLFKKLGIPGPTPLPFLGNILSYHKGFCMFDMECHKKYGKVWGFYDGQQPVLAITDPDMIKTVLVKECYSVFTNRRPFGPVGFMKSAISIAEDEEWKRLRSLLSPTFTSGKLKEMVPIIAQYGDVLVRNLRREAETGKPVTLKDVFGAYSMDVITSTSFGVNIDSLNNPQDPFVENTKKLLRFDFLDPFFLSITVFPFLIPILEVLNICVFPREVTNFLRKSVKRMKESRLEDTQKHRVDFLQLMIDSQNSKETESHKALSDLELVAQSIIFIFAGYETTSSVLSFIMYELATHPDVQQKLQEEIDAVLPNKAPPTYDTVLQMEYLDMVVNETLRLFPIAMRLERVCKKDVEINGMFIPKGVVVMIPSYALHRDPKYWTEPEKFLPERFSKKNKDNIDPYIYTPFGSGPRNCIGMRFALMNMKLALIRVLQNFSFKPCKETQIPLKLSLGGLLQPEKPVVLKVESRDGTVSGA
CYP1A2, sequence (P05177 whole entry): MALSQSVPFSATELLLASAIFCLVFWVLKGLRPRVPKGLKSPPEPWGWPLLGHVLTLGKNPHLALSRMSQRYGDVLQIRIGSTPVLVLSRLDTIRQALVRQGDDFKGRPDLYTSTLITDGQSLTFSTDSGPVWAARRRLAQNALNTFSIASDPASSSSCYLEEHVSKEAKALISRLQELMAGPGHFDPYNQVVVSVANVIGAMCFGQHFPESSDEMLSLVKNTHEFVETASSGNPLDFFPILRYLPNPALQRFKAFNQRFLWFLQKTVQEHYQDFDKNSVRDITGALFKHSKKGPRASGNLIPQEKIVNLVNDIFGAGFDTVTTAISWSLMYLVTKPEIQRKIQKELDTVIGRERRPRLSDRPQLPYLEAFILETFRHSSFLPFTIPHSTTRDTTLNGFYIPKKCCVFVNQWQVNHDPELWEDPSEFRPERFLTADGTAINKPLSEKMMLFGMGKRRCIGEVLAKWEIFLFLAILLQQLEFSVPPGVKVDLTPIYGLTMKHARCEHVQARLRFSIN
ERα, sequence (P03372 whole entry): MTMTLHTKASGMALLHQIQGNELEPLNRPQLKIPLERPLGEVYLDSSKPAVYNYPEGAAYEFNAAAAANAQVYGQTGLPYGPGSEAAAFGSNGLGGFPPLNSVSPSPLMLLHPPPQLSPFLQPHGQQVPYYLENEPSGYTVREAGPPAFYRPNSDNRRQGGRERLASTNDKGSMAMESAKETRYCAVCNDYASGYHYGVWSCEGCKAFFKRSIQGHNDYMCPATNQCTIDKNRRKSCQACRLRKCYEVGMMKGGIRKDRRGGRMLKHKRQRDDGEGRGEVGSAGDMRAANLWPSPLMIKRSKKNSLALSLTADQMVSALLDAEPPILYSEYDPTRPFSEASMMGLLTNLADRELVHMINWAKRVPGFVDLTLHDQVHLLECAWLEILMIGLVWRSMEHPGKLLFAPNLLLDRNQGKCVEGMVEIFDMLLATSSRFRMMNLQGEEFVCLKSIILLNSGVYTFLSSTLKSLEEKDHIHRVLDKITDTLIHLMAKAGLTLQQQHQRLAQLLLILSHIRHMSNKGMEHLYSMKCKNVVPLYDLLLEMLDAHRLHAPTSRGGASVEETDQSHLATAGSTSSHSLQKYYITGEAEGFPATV

For `FCCCN1CC(Nc2cnc(C3=C(CC(F)(F)F)CCOc4c3ccc3[nH]ncc43)cn2)C1` [Compound 3], at ERα, the DC50 was 0.45 nM. For the same compound, the IC50 was above 50000 nM against CYP1A2 (human, 10 min); 13600 nM on CYP3A4; 1.37 nM in the data set with MCF-7 cells.

As for `FCCCN1CC(Nc2cnc(C3=C(CC(F)(F)F)CCCc4c3ccc3[nH]nc(F)c43)cn2)C1` [Compound 8], the DC50 at ERα was 0.37 nM. Besides, the IC50 is above 50000 nM at CYP1A2, 42100 nM against CYP3A4 and 0.7 nM in the data set on MCF-7 cells.

For `FCCCN1CC(Nc2ccc(C3=C(CC(F)(F)F)CCCc4c3ccc3[nH]ncc43)nc2)C1` [Compound 6], the DC50 at ERα came to 0.42 nM. Moreover, the IC50 with MCF-7 cells came to 0.31 nM.

For `N#Cc1cc(C2=C(CC(F)(F)F)CCCc3c2ccc2[nH]nc(F)c32)ncc1NC1CN(CCCF)C1` [Compound 10], the IC50 turned out to be 47500 nM against CYP1A2 (human, 10 min) and 30800 nM on CYP3A4.

On to `FCCCN1CC(Nc2cnc(C3=C(CC(F)(F)F)CCCc4c3ccc3[nH]ncc43)nc2)C1` [Compound 7], for which the DC50 at ERα is 0.4 nM.

In the case of `FCCCN1CC(Nc2cnc(C3=C(CC(F)(F)F)CCCc4c3ccc3[nH]ncc43)cn2)C1` [Compound 5], the DC50 at ERα came out at 0.017 nM. Moreover, the IC50 in the data set on MCF-7 cells came out at 0.19 nM.

On to `FCCCN1CC(Nc2ncc(C3=C(CC(F)(F)F)CCCc4c3ccc3[nH]ncc43)cn2)C1` [Compound 4], for which the DC50 on ERα came to 0.17 nM. Moreover, the IC50 on CYP1A2 (human, 10 min) is above 50000 nM; at CYP3A4, 11100 nM.

In the case of `C[C@]12CC[C@@H]3c4ccc(O)cc4C[C@@H](CCCCCCCCC[S+]([O-])CCCC(F)(F)C(F)(F)F)[C@H]3[C@@H]1CC[C@@H]2O` (some centres unmarked) [fulvestrant, Fulvestrant], the “breast cancer patients showing clinical response” value in the data set with breast cancer is “about 50%”. Also, the oral bioavailability entry in data set [1] (po) is on record as “close to zero”. Also, the blood clearance rate result in data set [1] is given as “high”.

For `C#C[C@]1(O)CC[C@H]2[C@@H]3CCc4cc(O)ccc4[C@H]3CC[C@@]21C` [Ethinylestradiol, reference compound], in the data set with rat uterus, the Inhibition rate came out at 0%, the “Ratio of uterine wet weight/rat body weight” value is recorded as 2.45 mg/g and the Uterine wet weight turned out to be 132.2 mg.

On to `OCCCC1=C(c2ccc(OC3CN(CCCF)C3)cc2)c2ccc3[nH]ncc3c2CCC1` [Formate of 1], for which the DC50 at ERα worked out at 0.25 nM. Besides, the IC50 in the data set with MCF-7 cells worked out at 0.42 nM.
